Read-outs that look alike come from different tables or passages of the source. Marks after values point to notes of the source that are not given here.
Assays:
[1] = test system: NCI-H295R cells; experiment: Cell viability (MTT) in the H295R assay; type: cell-based, human; settings: human, 48 h
Procedure: To capture effects on steroid hormone synthesis (testosterone and androstendione), we tested all 12 pesticides in the H295R assay with the human adrenocortical carcinoma cell line NCI-H295R (American Type Culture Collection no. CRL-2,128, LGC Standards), as previously described ([Hecker et al. 2011]; [Rosenmai et al. 2013]). In brief, cells were cultured in DMEM/F-12 +glutamine medium with HEPES buffer (Invitrogen) containing 1% insulin-transferrin-sodium selenite plus Premix (VWR) and 2.5% Nu-Serum (BD Bioscience) at 37°C in a 5% CO2 atmosphere. The day before exposure, cells were seeded 300,000 per well in clear 24-well plates (VWR Corning). Cells were exposed for 48 h to control (Forskolin: 1μM , 10μM (Sigma-Aldrich); and Prochloraz: 0.3μM , 3μM (VWR-Bie and Berntsen) or test compounds. The vehicle (DMSO) concentration was kept constant in all wells (0.1%). After 48 h, the exposure culture medium was removed and stored at –80°C until the levels of 10 steroid hormones (testosterone, androstenedione, aldosterone, corticosterone, cortisol, dehydroepiandrosterone, 17α-hydroxyprogesterone , progesterone, estrone, and 17β-estradiol ) were quantified using the high-performance liquid chromatography–tandem mass spectrometry method described elsewhere ([Mortensen and Pedersen 2007]). Minor modifications were made to accommodate a smaller sample size and to include more hormones. […]

[2] = cited from earlier work
[3] = test system: pregnant dams and pups; settings: ref EFSA's Draft Assessment Reports (DARs); cited from earlier work
[4] = test system: Wistar rats; experiment: In vivo Study 3 (fludioxonil, cyprodinil, dimethomorph), reproductive/developmental toxicity, AGD; settings: for AGDI mean: Study 3, male pups
[5] = test system: Sprague-Dawley rats; experiment: In vivo Study 4 (dimethomorph follow-up), reproductive/developmental toxicity, AGD

N#Cc1c[nH]cc1-c1cccc2c1OC(F)(F)O2 [Fludioxonil, fludioxonil]
Cytotoxicity in H295R assay, concentrations [1]: > 12.5 µM | Unbound plasma fraction (%) ([2]; ref Wetmore et al. (2012)): 0.5^g % | Critical toxicity [3]: Reduced maternal and pup BW | LOAEL (mg/kg bw) [3]: 212 mg/kg bw | NOAEL (mg/kg bw) [3]: 21 mg/kg bw | % perinatal loss ([4]; 20 mg/kg bw/day): 11.5 ± 11.9% | % postimplantation loss ([4]; 20 mg/kg bw/day): 8.4 ± 10.2% | % postnatal deaths ([4]; 20 mg/kg bw/day): 3.1 ± 9.7% | %males ([4]; 20 mg/kg bw/day): 54.8 ± 15.6% | AGD females (mm) ([4]; 20 mg/kg bw/day): 2.15 ± 0.09 mm | AGD females (units) ([4]; 20 mg/kg bw/day): 13.04 ± 0.5 units | AGD males (mm) ([4]; 20 mg/kg bw/day): 3.84 ± 0.12 mm | AGD males (units) ([4]; 20 mg/kg bw/day): 23.26 ± 0.7 units | Dam bw gain PD 1-14 ([4]; 20 mg/kg bw/day): 33.1 ± 12.7 | Dam bw gain, GD7- PD 1 ([4]; 20 mg/kg bw/day): 23.8 ± 10.5 | Dam bw gain,GD7-21 ([4]; 20 mg/kg bw/day): 92.7 ± 15.8 | Female birth weight ([4]; 20 mg/kg bw/day): 6.21 ± 0.5 | Gestation length ([4]; 20 mg/kg bw/day): 23.0 ± 0.0 days | Litter size ([4]; 20 mg/kg bw/day): 10.5 ± 2.4 | Male birth weight ([4]; 20 mg/kg bw/day): 6.48 ± 0.4 | Male weights PD 23 ([4]; 20 mg/kg bw/day): 48.66 ± 6.1 | Nipple retention females ([4]; 20 mg/kg bw/day): 12.21 ± 0.2 | Nipple retention males ([4]; 20 mg/kg bw/day): 0.04 ± 0.09 | Offspring weight PD 6 ([4]; 20 mg/kg bw/day): 12.98 ± 1.3 | Offspring weight PD 14 ([4]; 20 mg/kg bw/day): 28.07 ± 3.3 | % perinatal loss ([4]; 60 mg/kg bw/day): 18.7 ± 32.5% | % postimplantation loss ([4]; 60 mg/kg bw/day): 15.9 ± 32.1% | % postnatal deaths ([4]; 60 mg/kg bw/day): 3.4 ± 9.6% | %males ([4]; 60 mg/kg bw/day): 47.2 ± 14.5% | AGD females (mm) ([4]; 60 mg/kg bw/day): 2.10 ± 0.11 mm | AGD females (units) ([4]; 60 mg/kg bw/day): 12.70 ± 0.6 units | AGD males (mm) ([4]; 60 mg/kg bw/day): 3.77 ± 0.16 mm | AGD males (units) ([4]; 60 mg/kg bw/day): 22.83 ± 1.0 units | Dam bw gain PD 1-14 ([4]; 60 mg/kg bw/day): 38.1 ± 10.8 | Dam bw gain, GD7- PD 1 ([4]; 60 mg/kg bw/day): 16.8 ± 8.1 | Dam bw gain,GD7-21 ([4]; 60 mg/kg bw/day): 84.8 ± 9.7 | Female birth weight ([4]; 60 mg/kg bw/day): 6.18 ± 0.3 | Gestation length ([4]; 60 mg/kg bw/day): 23.0 ± 0.0 days | Litter size ([4]; 60 mg/kg bw/day): 11.0 ± 1.3 | Male birth weight ([4]; 60 mg/kg bw/day): 6.58 ± 0.4 | Male weights PD 23 ([4]; 60 mg/kg bw/day): 49.78 ± 6.9 | Nipple retention females ([4]; 60 mg/kg bw/day): 12.13 ± 0.2 | Nipple retention males ([4]; 60 mg/kg bw/day): 0.08 ± 0.16 | Offspring weight PD 6 ([4]; 60 mg/kg bw/day): 13.20 ± 1.6 | Offspring weight PD 14 ([4]; 60 mg/kg bw/day): 28.41 ± 4.2 | % perinatal loss ([4]; 180 mg/kg bw/day): 32.3 ± 35.6% | % postimplantation loss ([4]; 180 mg/kg bw/day): 31.4 ± 36.0% | % postnatal deaths ([4]; 180 mg/kg bw/day): 1.1 ± 2.7% | %males ([4]; 180 mg/kg bw/day): 63.0 ± 20.8% | AGD females (mm) ([4]; 180 mg/kg bw/day): 2.15 ± 0.10 mm | AGD females (units) ([4]; 180 mg/kg bw/day): 13.04 ± 0.6 units | AGD males (mm) ([4]; 180 mg/kg bw/day): 3.81 ± 0.18 mm | AGD males (units) ([4]; 180 mg/kg bw/day): 23.11 ± 1.1 units | Dam bw gain PD 1-14 ([4]; 180 mg/kg bw/day): 23.2 ± 15.5 | Dam bw gain, GD7- PD 1 ([4]; 180 mg/kg bw/day): 17.5 ± 14.9 | Dam bw gain,GD7-21 ([4]; 180 mg/kg bw/day): 71.3 ± 20.7 | Female birth weight ([4]; 180 mg/kg bw/day): 6.06 ± 0.5 | Gestation length ([4]; 180 mg/kg bw/day): 22.8 ± 0.75 days | Litter size ([4]; 180 mg/kg bw/day): 8.2 ± 5.0 | Male birth weight ([4]; 180 mg/kg bw/day): 6.51 ± 0.6 | Male weights PD 23 ([4]; 180 mg/kg bw/day): 47.97 ± 5.6 | Nipple retention females ([4]; 180 mg/kg bw/day): 12.41 ± 0.6 | Nipple retention males ([4]; 180 mg/kg bw/day): 0.47 ± 0.78 | Offspring weight PD 6 ([4]; 180 mg/kg bw/day): 12.54 ± 1.9 | Offspring weight PD 14 ([4]; 180 mg/kg bw/day): 26.58 ± 4.1 | Nipple retention at PD14, statistics in words ([4]; Study 3): no statistically significant effects on nipple retention | AGDI mean ([4]; dose 20 mg/kg BW): 2.06 | AGDI mean ([4]; dose 60 mg/kg BW): 2.01 | AGDI mean ([4]; dose 180 mg/kg BW): 2.06 | AGDI reduction (%) ([4]; male offspring, normalized AGDI scale, dose 60 mg/kg BW per day): 13%

COc1ccc(C(=CC(=O)N2CCOCC2)c2ccc(Cl)cc2)cc1OC [Dimethomorph, dimethomorph]
Unbound plasma fraction (%) ([2]; plasma): 9.4^g % | Critical toxicity [3]: Reduced maternal and pup body weight, reduced gestation length | LOAEL (mg/kg bw) [3]: 67 mg/kg bw | NOAEL (mg/kg bw) [3]: 20 mg/kg bw | % perinatal loss ([5]; 20 mg/kg/bw): 3.5 ± 6.3% | % postimplantation loss ([5]; 20 mg/kg/bw): 2.6 ± 4.9% | % postnatal deaths ([5]; 20 mg/kg/bw): 1.6 ± 3.7% | AGD females (mm) ([5]; 20 mg/kg/bw): 2.0 ± 0.1 mm | AGD females (units) ([5]; 20 mg/kg/bw): 12.4 ± 0.8 units | AGD index females ([5]; 20 mg/kg/bw): 1.1 ± 0.1 | AGD index males ([5]; 20 mg/kg/bw): 1.94 ± 0.1 | AGD males (mm) ([5]; 20 mg/kg/bw): 3.74 ± 0.2 mm | % perinatal loss ([5]; 60 mg/kg/bw): 5.7 ± 6.0% | % postimplantation loss ([5]; 60 mg/kg/bw): 4.3 ± 5.2% | % postnatal deaths ([5]; 60 mg/kg/bw): 1.4 ± 3.1% | AGD females (mm) ([5]; 60 mg/kg/bw): 1.9 ± 0.1 mm | AGD females (units) ([5]; 60 mg/kg/bw): 11.8 ± 0.6 units | AGD index females ([5]; 60 mg/kg/bw): 1.0 ± 0.0 | AGD index males ([5]; 60 mg/kg/bw): 1.87 ± 0.1 | AGD males (mm) ([5]; 60 mg/kg/bw): 3.51 ± 0.2 mm | Maternal toxicity ([5]; 180 mg/kg per day, increased postimplantation and perinatal loss, higher postnatal death rate): indications for a mild maternal toxicity | % perinatal loss ([5]; 180 mg/kg/bw): 13.3 ± 11.8% | % postimplantation loss ([5]; 180 mg/kg/bw): 10.1 ± 12.6% | % postnatal deaths ([5]; 180 mg/kg/bw): 3.2 ± 7.2% | AGD females (mm) ([5]; 180 mg/kg/bw): 2.0 ± 0.2 mm | AGD females (units) ([5]; 180 mg/kg/bw): 12.1 ± 0.9 units | AGD index females ([5]; 180 mg/kg/bw): 1.1 ± 0.0 | AGD index males ([5]; 180 mg/kg/bw): 1.90 ± 0.11 | AGD males (mm) ([5]; 180 mg/kg/bw): 3.57 ± 0.2 mm | % postnatal deaths ([4]; 20 mg/kg bw/day): 1.4 ± 3.8% | AGD index females ([4]; 20 mg/kg bw/day): 1.12 ± 0.03 | AGD index males ([4]; 20 mg/kg bw/day): 2.01 ± 0.04 | % postnatal deaths ([4]; 60 mg/kg bw/day): 2.6 ± 4.1% | AGD index females ([4]; 60 mg/kg bw/day): 1.18 ± 0.05 | AGD index males ([4]; 60 mg/kg bw/day): 2.15 ± 0.08
